Non-standard residues stand in square brackets, D forms with d. Residues, ends and D or L forms follow the SMILES beside them. Nle = CCCC[C@H](N)C(=O)O
Legend:
[1] = tested on: human Rhinovirus in primary nasal cells; test: Peptidomimetic screen in human nasal cells: RV infectivity (RT-PCR); type: cell-based; conditions: for RV infectivity / RV inhibition activity: RV MOI 0.1 for 4 hrs, then compound for 48 hrs, triplicate, RT-PCR (FIG. 10 top panel)
Text: (§1) Top panel, RV infectivity; middle panel, IFN-lamda; bottom panel, TNF-alpha levels. All determined by RT-PCR.
(§2) CC16-derived peptidomimetics provide protection against human Rhinovirus infection in airway epithelial cells. Preliminary studies were done in primary nasal cells grown at an ALI. Transwell cells were challenged with RV ([…] (MOI) 0.1) for 4 hrs, after which external RV was washed from the cell surface and test compounds added; uninfected baseline controls will be treated the same by pipetting media. Cells are allowed to incubate for an additional 48 hrs. Three readouts were used for analysis in this screen: RV infectivity, INF-lambda induction, and TNF-alpha induction. An optimal compound for this screening will have a reduction in RV infection, maintain high levels of INF-lambda, and have low levels of TNF-alpha.
(§3) RV burden, INF-lambda, and TNF-alpha are assessed by RT-PCR. Those compounds moving forward will be tested in a dose-response to determine optimal concentrations needed for IC50.

INF-lambda = test: Peptidomimetic screen in human nasal cells: INF-lambda induction (RT-PCR); type: cell-based; conditions: 2.5 μM; RV MOI 0.1 for 4 hrs, then compound for 48 hrs; RT-PCR (FIG. 10 middle panel)
Text: as §1, §2, §3

TNF-alpha = test: Peptidomimetic screen in human nasal cells: TNF-alpha induction (RT-PCR); type: cell-based; conditions: 2.5 μM; RV MOI 0.1 for 4 hrs, then compound for 48 hrs; RT-PCR (FIG. 10 bottom panel)
Text: as §1, §2, §3

[2] = tested on: RV in primary human nasal epithelial cells (HNECs); test: RV infection in primary human nasal epithelial cells (HNECs) at ALI, post-infection treatment (qPCR); type: cell-based; conditions: 25 g/ml (so in the source); added after 4 hrs RV infection, 48 hrs incubation; non-asthma participants; p<0.01 by ANOVA (FIG. 6)
Method: Cells were grown at ALI for 3 weeks and infected with RV for 4 hours, after which they were washed and allowed to incubate for 48 hours with or without rCC16 or C836. RV was determined by qPCR. Each dot is a technical replicate, ** p<0.01 by ANOVA.
rCC16 and CC16-derived peptidomimetics reduce RV infection in human nasal cells. In order to test if rCC16 added exogenously could protect against RV viral infection, primary human nasal epithelial cells (HNECs) were grown from non-asthma participants at an air-liquid interface (ALI) for 21 days. On the day of infection, RV was added to the apical surface and allowed to incubate for 4 hrs, after which cells were gently washed with media, and either media alone, rCC16 (25 g/ml), or CC16-derived peptidomimetic, C836 (25 g/ml), were added and cells allowed to incubate for an additional 48 hrs. After harvest, RV infectivity was determined by PCR for RV.

[3] = tested on: airway hyperresponsiveness (AHR); test: Airway hyperresponsiveness (AHR) to methacholine in HDM-exposed Cc16^−/− mice (flexiVent); type: in vivo; conditions: oropharyngeal, approximately 1 hr after each HDM dose on days 0, 7, 14; methacholine 24 hrs after last HDM; p<0.05 at the highest dose (FIG. 9)
Method: C836 was delivered to the airways 2 hrs after each HDM challenge. AHR to methacholine was assessed 24 hrs after the last HDM challenge. * p<0.05 at the highest dose.
C836 reduces AHR in Cc16^−/− mice exposed to HDM. The activity of C836 was tested for its ability to provide protection in the allergic airway model induced by exposure to HDM. For this, CC16^−/− mice were used, and the C836 (or vehicle control) was delivered to the airway via the oropharyngeal method approximately 1 hr after each HDM dose on days 0, 7, and 14. Mice were assessed 24 hrs after the last HDM challenge by flexi Vent® and methacholine challenge.

[4] = tested on: lung function in HDM-treated mice; test: Baseline lung function (FEV0.2, invasive PFT) without methacholine provocation in HDM-treated mice; type: in vivo; conditions: IV, 24 hrs after last HDM challenge (FIG. 8 right)
Method: (§4) Left panel, C836, was delivered via IV 2 hrs after each HDM challenge. Cells in the lavage fluid were measured 24 hrs after the last HDM challenge. Right panel, baseline lung function, without methacholine provocation, as assessed in the mice receiving C836 IV, 24 hrs after the last HDM challenge. ** p<0.01, **** p<0.0001 by ANOVA.
Lung function tests are typically performed using methacholine provocation, which induces bronchoconstriction. However, the tests referenced here were conducted without provocation, meaning that when C836 was administered alongside an HDM challenge, it prevented the loss of lung function typically associated with HDM exposure. These tests were conducted at baseline, without the use of a bronchoconstrictor, similar to an asthma patient living a normal day without an attack.

[5] = tested on: house dust mite (HDM) allergic airway disease; neutrophils in lavage fluid; test: Neutrophil recruitment into the lung in HDM model, IV treatment; type: in vivo, mice; conditions: IV 2 hrs after each HDM challenge; lavage fluid 24 hrs after last HDM challenge; preliminary (FIG. 8 left)
Method: as §4
Thus, a small peptidomimetic was designed based on the newly discovered LVD (leucine-valine-aspartic acid) integrin binding domain contained within the CC16 protein. The lead compound, C836, is a 17-mer containing the LVD integrin binding domain. […] Neutrophils, when present in the lungs of individuals with asthma, are typically associated with more severe and difficult to treat forms of the condition. In COPD, neutrophils are often highly destructive, releasing factors and enzymes that degrade the basement membrane and damage the delicate airway epithelium. Therefore, strategies to reduce neutrophil accumulation or activity in both asthma and COPD would provide significant benefits for overall lung health, potentially improving disease outcomes and reducing airway damage.

[6] = tested on: airway hyperresponsiveness and respiratory infections; test: rCC16 delivered intravenously (retro-orbital) or oropharyngeally: airway hyperresponsiveness and respiratory infections; type: in vivo; conditions: IV via retro-orbital injection or oropharyngeal delivery (both)
Text: (§5) In the examples provided below, human recombinant CC16 (rCC16) was delivered either intravenously (IV) via retro-orbital injection or directly to the lungs through oropharyngeal delivery.

[7] = tested on: human Rhinovirus (RV; RVIB); test: RV burden in CC16^−/− mice given rCC16 (RT-PCR); type: in vivo; conditions: female CC16^−/− mice; RV 4×10^7 PFU/50 μl intranasal; rCC16 given at time of infection; RT-PCR at 48 hrs; p<0.05 by t-test (FIG. 4)
Method: RT-PCR at 48 hrs. * p<0.05 by t-test.
rCC16 treatment decreases human Rhinovirus (RV; RVIB) burden in CC16^−/− mice: For these studies, female mice were infected with RV (4×10^7 plaque-forming unit (PFU)/50 μl) via intranasal instillation for 48 hrs, and mice were either given vehicle (saline) or rCC16 (human recombinant CC16) at the time of infection.

[8] = tested on: leukocyte recruitment into the lungs; test: rCC16 delivered intravenously or oropharyngeally: leukocyte recruitment into the lungs; type: in vivo; conditions: only intravenous delivery
Text: as §5

respiratory challenges = conditions: direct delivery; cited from earlier work

Molecule: CCCC[C@H](NC(=O)[C@H](CC(=O)O)NC(=O)[C@H](CCC(N)=O)NC(=O)[C@H](CC(=O)O)NC(C)=O)C(=O)N[C@@H](CCCNC(=N)N)C(=O)N[C@@H](CCC(=O)O)C(=O)N[C@@H](C)C(=O)NCC(=O)N[C@@H](C)C(=O)N[C@@H](CCC(N)=O)C(=O)N[C@@H](CC(C)C)C(=O)N[C@@H](CCCCN)C(=O)N[C@@H](CCCCN)C(=O)N[C@@H](CC(C)C)C(=O)N[C@H](C(N)=O)C(C)C [Compound 971, Ac-Asp-Gln-Asp-Nle-Arg-Glu-Ala-Gly-Ala-Gln-Leu-Lys-Lys-Leu-Val-NH2] (Ac-DQD[Nle]REAGAQLKKLV-NH2)
- RV infectivity / RV inhibition activity ([1]; 2.5 μM): had RV inhibition activity

Molecule: CCCC[C@H](NC(=O)[C@H](CC(=O)O)NC(=O)[C@H](CCC(N)=O)NC(=O)[C@H](CC(=O)O)NC(C)=O)C(=O)N[C@@H](CCCNC(=N)N)C(=O)N[C@@H](CCC(=O)O)C(=O)N[C@@H](C)C(=O)NCC(=O)N[C@@H](C)C(=O)N[C@@H](CCC(N)=O)C(=O)N[C@@H](CC(C)C)C(=O)N[C@@H](CCCCN)C(=O)N[C@@H](CCCCN)C(=O)N[C@@H](CC(C)C)C(=O)N[C@H](C(=O)N[C@@H](CC(=O)O)C(=O)O)C(C)C [Compound 970, Ac-Asp-Gln-Asp-Nle-Arg-Glu-Ala-Gly-Ala-Gln-Leu-Lys-Lys-Leu-Val-Asp-OH] (Ac-DQD[Nle]REAGAQLKKLVD-OH)
- RV infectivity / RV inhibition activity ([1]; 2.5 μM): had RV inhibition activity

Molecule: CCCC[C@H](NC(=O)[C@H](CC(=O)O)NC(=O)[C@H](CCC(N)=O)NC(C)=O)C(=O)N[C@@H](CCCNC(=N)N)C(=O)N[C@@H](CCC(=O)O)C(=O)N[C@@H](C)C(=O)NCC(=O)N[C@@H](C)C(=O)N[C@@H](CCC(N)=O)C(=O)N[C@@H](CC(C)C)C(=O)N[C@@H](CCCCN)C(=O)N[C@@H](CCCCN)C(=O)N[C@@H](CC(C)C)C(=O)N[C@H](C(=O)N[C@@H](CC(=O)O)C(=O)N[C@H](C(N)=O)[C@@H](C)O)C(C)C [Compound 972, Ac-Gln-Asp-Nle-Arg-Glu-Ala-Gly-Ala-Gln-Leu-Lys-Lys-Leu-Val-Asp-Thr-NH2] (Ac-QD[Nle]REAGAQLKKLVDT-NH2)
- INF-lambda levels (INF-lambda): maintain INF-lambda levels
- RV infectivity / RV inhibition activity ([1]; 2.5 μM): had RV inhibition activity
- overall outcome of the screen for the 3 factors (RV infectivity, INF-lambda, TNF-alpha) ([1]; 2.5 μM, RV-infected nasal cells): best candidate to move forward

Molecule: Ac-Nle-Arg-Glu-Ala-Gly-Ala-Gln-Leu-Lys-Lys-Leu-Val-Asp-Thr-NH2 (Ac-[Nle]REAGAQLKKLVDT-NH2; SMILES CCCC[C@H](NC(C)=O)C(=O)N[C@@H](CCCNC(=N)N)C(=O)N[C@@H](CCC(=O)O)C(=O)N[C@@H](C)C(=O)NCC(=O)N[C@@H](C)C(=O)N[C@@H](CCC(N)=O)C(=O)N[C@@H](CC(C)C)C(=O)N[C@@H](CCCCN)C(=O)N[C@@H](CCCCN)C(=O)N[C@@H](CC(C)C)C(=O)N[C@H](C(=O)N[C@@H](CC(=O)O)C(=O)N[C@H](C(N)=O)[C@@H](C)O)C(C)C) [Compound 974]
- INF-lambda levels (INF-lambda): maintain INF-lambda levels
- RV infectivity / RV inhibition activity ([1]; 2.5 μM): had RV inhibition activity
- TNF-alpha levels (TNF-alpha): has a spike in TNF-alpha

Molecule: CCCC[C@H](NC(=O)[C@H](CC(=O)O)NC(=O)[C@H](CCC(N)=O)NC(=O)[C@H](CC(=O)O)NC(C)=O)C(=O)N[C@@H](CCCNC(=N)N)C(=O)N[C@@H](CCC(=O)O)C(=O)N[C@@H](C)C(=O)NCC(=O)N[C@@H](C)C(=O)N[C@@H](CCC(N)=O)C(=O)N[C@@H](CC(C)C)C(=O)N[C@@H](CCCCN)C(=O)N[C@@H](CCCCN)C(=O)N[C@@H](CC(C)C)C(=O)N[C@H](C(=O)N[C@@H](CC(=O)O)C(=O)N[C@H](C(N)=O)[C@@H](C)O)C(C)C [Compound C836, DQD-Nle-REAGAQLKKLVDT] (Ac-DQD[Nle]REAGAQLKKLVDT-NH2)
- reduction of RV infection in human nasal cells [2]: approximately 80%
- RV infectivity / RV inhibition activity ([1]; 2.5 μM): have activity in reducing RV infectivity
- airway hyperresponsiveness (AHR) compared to HDM-treated given vehicle [3]: significantly lower airway hyperresponsiveness (AHR)
- loss of lung function as measured by FEV0.2 [4]: protective from loss of lung function
- neutrophils recruited into the lung during HDM challenge [5]: fewer neutrophils are recruited into the lung

B1: rCC16: human recombinant CC16 (club cell secretory protein) (protein, UniProt P11684 22-91, looked up)
Uteroglobin: EICPSFQRVIETLLMDTPSSYEAAMELFSPDQDMREAGAQLKKLVDTLPQKPRESIIKLMEKIAQSSLCN
- protection against airway hyperresponsiveness and respiratory infections [6]: effective in providing protection
- RV burden compared to vehicle-treated mice [7]: significant reduction in RV
- reduction of RV infection in human nasal cells [2]: approximately 80%
- IC50 ([1]; rCC16, RV infection of nasal cells, read-out: dose found to be optimal to inhibit 50% of infection): 2500 nM
- leukocyte recruitment into the lungs [8]: reduce leukocyte recruitment into the lungs
- protection during respiratory challenges (respiratory challenges): protective

B2: rCC16 from R&D: standard control, rCC16 from R&D (protein, UniProt P11684 22-91, looked up)
Uteroglobin: B1 Uteroglobin
- RV infectivity / RV inhibition activity ([1]; 2.5 μM): have activity in reducing RV infectivity

B3: rCC16 made at UA (MJ): standard control, rCC16 made at UA (MJ) (protein, UniProt P11684 22-91, looked up)
Uteroglobin: B1 Uteroglobin
- RV infectivity / RV inhibition activity ([1]; 2.5 μM): have activity in reducing RV infectivity

Source: patent US20260337240A1, “CC16-DERIVED ANALOGS FOR THE TREATMENT OF INFLAMMATORY AND OBSTRUCTIVE LUNG DISEASES” (priority 2023, published 2026)
